Source: ChEMBL document CHEMBL1201862, “PubChem BioAssay data set” (2004)
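All cell lines were grown in 96-well plates and treated with compound for 48 hours. GI50: concentration for 50% inhibition of growth.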 The source made the active and inactive calls. Rule as the data show it: active = GI50 up to about 1.1 µM and inactive = higher.

What was measured:
Assay in all cases: NCI tumour cell line growth inhibition, 48 h
[1] = test system: HCT-116
[2] = test system: OVCAR-3
[3] = test system: HL-60
[4] = test system: SF-295
[5] = test system: A498
[6] = test system: HCT-15
[7] = test system: SK-MEL-2
[8] = test system: HOP-18
[9] = test system: MOLT-4
[10] = test system: SW-620
[11] = test system: HOP-62
[12] = test system: OVCAR-5
[13] = test system: IGROV-1
[14] = test system: RXF 393
[15] = test system: Malme-3M
[16] = test system: RPMI-8226
[17] = test system: MDA-MB-435
[18] = test system: Hs-578T
[19] = test system: NCI/ADR-RES
[20] = test system: T47D

Row | Compound | GI50 [1] | GI50 [2] | GI50 [3] | GI50 [4] | GI50 [5] | GI50 [6] | GI50 [7] | GI50 [8] | GI50 [9] | GI50 [10] | GI50 [11] | GI50 [12] | GI50 [13] | GI50 [14] | GI50 [15] | GI50 [16] | GI50 [17] | GI50 [18] | GI50 [19] | GI50 [20]
1 | NC1C2(CCCCCC2)NC(=O)C12CCCCCC2 (stereo not given) | > 100 µM (inactive) | > 100 µM (inactive) | > 100 µM (inactive) | > 100 µM (inactive) | > 100 µM (inactive) | > 100 µM | > 100 µM (inactive) | > 100 µM (inactive) | > 100 µM (inactive) | > 100 µM (inactive) | > 100 µM (inactive) | > 100 µM (inactive) | > 100 µM (inactive) | > 100 µM (inactive) | > 100 µM (inactive) |  |  |  |  | 
2 | O=C(Cc1ccccc1)NN1C(=O)C(Cl)C1c1ccccc1O (stereo not given) | 5.56 µM (inactive) | 2.64 µM (inactive) | 3.21 µM (inactive) | 15.4 µM (inactive) |  | 5.85 µM | 17.8 µM (inactive) | 3.82 µM (inactive) | 3.22 µM (inactive) | 15.8 µM (inactive) | 12.6 µM (inactive) | 15.4 µM (inactive) | 25.8 µM (inactive) | 36 µM (inactive) | 19.5 µM (inactive) | 9.84 µM (inactive) |  |  |  | 
3 | Oc1c(Cl)c2nccnc2c2ccccc12 | > 100 µM (inactive) | > 100 µM (inactive) | > 100 µM (inactive) | > 100 µM (inactive) | > 100 µM (inactive) | > 100 µM | > 100 µM (inactive) | 36.9 µM (inactive) | > 100 µM (inactive) | > 100 µM (inactive) |  | > 100 µM (inactive) | > 100 µM (inactive) | > 100 µM (inactive) | > 100 µM (inactive) | > 100 µM (inactive) |  |  |  | 
4 | Cc1[nH]c2ccccc2c1C(=O)CC1(O)C(=O)Nc2c(Cl)cc(Cl)cc21 (stereo not given) | 35.1 µM (inactive) | 16.6 µM (inactive) | 14.6 µM (inactive) | 19.5 µM (inactive) | 33 µM (inactive) | 40.5 µM | 28.6 µM (inactive) | 25.6 µM (inactive) | 22.1 µM (inactive) | 22.2 µM (inactive) | 46.9 µM (inactive) | 24 µM (inactive) | 53.1 µM (inactive) | 22.2 µM (inactive) | 18.9 µM (inactive) | 25.5 µM (inactive) |  |  |  | 
5 | COc1ccc2nc3cc(Cl)ccc3c(SCC(=O)Nc3ccccc3-c3ccccc3NC(=O)CSc3c4ccc(Cl)cc4nc4ccc(OC)cc34)c2c1 | > 100 µM (inactive) | > 100 µM (inactive) |  | > 100 µM (inactive) | > 100 µM (inactive) | > 100 µM | > 100 µM (inactive) | > 100 µM (inactive) | > 100 µM (inactive) | > 100 µM (inactive) | > 100 µM (inactive) | > 100 µM (inactive) | > 100 µM (inactive) | > 100 µM (inactive) | > 100 µM (inactive) | > 100 µM (inactive) |  |  |  | 
6 | O=C1NC(=O)c2c1n(Cc1ccccc1)c(=O)n2Cc1ccccc1 | > 100 µM (inactive) | > 100 µM (inactive) | 87.7 µM (inactive) | > 100 µM (inactive) | 30.4 µM (inactive) | 77.8 µM | > 100 µM (inactive) | > 100 µM (inactive) | > 100 µM (inactive) | > 100 µM (inactive) | > 100 µM (inactive) | > 100 µM (inactive) | > 100 µM (inactive) | > 100 µM (inactive) | > 100 µM (inactive) | 53.2 µM (inactive) |  |  |  | 
7 | CCOC(=O)C[n+]1cccc(C2(c3cc4ccccc4[nH]3)OCCO2)c1 | > 100 µM (inactive) | > 100 µM (inactive) | > 100 µM (inactive) | > 100 µM (inactive) | > 100 µM (inactive) | > 100 µM | > 100 µM (inactive) |  | > 100 µM (inactive) | > 100 µM (inactive) | > 100 µM (inactive) | > 100 µM (inactive) | > 100 µM (inactive) | > 100 µM (inactive) | > 100 µM (inactive) | > 100 µM (inactive) | > 100 µM (inactive) | > 100 µM (inactive) | > 100 µM (inactive) | > 100 µM (inactive)
8 | Cc1ccc(S(=O)(=O)Nc2cccc(C)c2C)cc1 | 49.1 µM (inactive) | 34 µM (inactive) | 32.2 µM (inactive) | 33.7 µM (inactive) | > 100 µM (inactive) | 41.1 µM |  | > 100 µM (inactive) | 45.5 µM (inactive) | 86.7 µM (inactive) | 86.3 µM (inactive) | 57.7 µM (inactive) | 82.4 µM (inactive) | 19 µM (inactive) | 96.8 µM (inactive) | > 100 µM (inactive) |  |  |  | 
9 | [O-][Cl+3]([O-])([O-])O.c1ccc(/N=c2\snc(-c3ccccc3)s2)cc1 | > 100 µM (inactive) |  | > 100 µM (inactive) |  | > 100 µM (inactive) | > 100 µM | > 100 µM (inactive) | > 100 µM (inactive) | > 100 µM (inactive) | > 100 µM (inactive) | > 100 µM (inactive) |  | > 100 µM (inactive) | > 100 µM (inactive) | > 100 µM (inactive) | > 100 µM (inactive) |  |  |  | 
10 | C=C(C[N+](C)(C)C)N/N=C/c1oc(-c2ccc(OC)c(OC)c2)c(-c2ccc(OC)c(OC)c2)c1[N+](=O)[O-] | 17 µM (inactive) | 24.8 µM (inactive) | 8.63 µM (inactive) | 17.5 µM (inactive) | 28.6 µM (inactive) | 17.9 µM | 16.7 µM (inactive) | 22.1 µM (inactive) | 22.4 µM (inactive) | 18.7 µM (inactive) |  | 19.1 µM (inactive) | 18.1 µM (inactive) | 15.2 µM (inactive) | > 10 µM (inactive) | 14.6 µM (inactive) |  |  |  | 
11 | Cc1noc2c1C(=O)CCC2 | > 100 µM (inactive) | > 100 µM (inactive) | > 100 µM (inactive) |  |  |  | > 100 µM (inactive) | > 100 µM (inactive) | > 100 µM (inactive) | > 100 µM (inactive) |  | > 100 µM (inactive) |  | > 100 µM (inactive) | > 100 µM (inactive) | > 100 µM (inactive) |  |  |  | 
12 | CC1=C(C(=O)Nc2ccccc2C)C(c2ccccc2C)C(C(=O)Nc2ccccc2C)=C(C)N1 | 20.4 µM (inactive) | 16.6 µM (inactive) | 17 µM (inactive) | 20.1 µM (inactive) | 16.8 µM (inactive) | 18.7 µM | 18.7 µM (inactive) | 18.4 µM (inactive) | > 10 µM (inactive) | 18.1 µM (inactive) | 25.2 µM (inactive) | 23.3 µM (inactive) | 18.5 µM (inactive) | 12.3 µM (inactive) | 18.2 µM (inactive) | 24 µM (inactive) |  |  |  | 
13 | C[N+]12c3ccccc3O[B-]1(c1ccccc1)Oc1ccccc12 (stereo not given) | 38.5 µM (inactive) | 31 µM (inactive) | 14.5 µM (inactive) | 41 µM (inactive) | > 100 µM (inactive) |  |  | 42.9 µM (inactive) | 5.74 µM (inactive) | 28.1 µM (inactive) | 72.1 µM (inactive) | 77.4 µM (inactive) | 25.4 µM (inactive) | 25.4 µM (inactive) | 40 µM (inactive) | 37.4 µM (inactive) |  |  |  | 
